Laboratory results reported in patent US11142796B2, “MIR-18B for use as a marker of cancer progression and target for therapies to treat cancer” (SUTTER WEST BAY HOSPITALS, priority 2012, dated 2021).
Entries after “also recorded” stand apart in the source; their conditions may differ.

Key:
miR-18b expression = miR-18b expression by miR qRT-PCR in drug-treated melanoma cells; assay type: cell-based, human
Excerpt: The DO4, WM3211, 1205-Lu, C8161.9, WM278 and Lox melanoma cell lines were obtained and propagated as described in Dar et al., J Biol Chem 286:16606-14 (2011). Normal human melanocytes (HEM) were purchased from Lifeline cell technology and grown in LL-0027 media (Lifeline cell technology, Walkersville Md.). Plasmids miRNASelect™ pEP-miR Null control vector (pEP Null), miRNASelect™ pEP-hsa-mir-18b expression vector (pEP miR-18b) (Cell Biolabs Inc, San Diego Calif.) were purchased. TaqMan probes for hsa-miR-18b and negative control pre-miR (cont. miR) were purchased from Applied Biosystems (Foster City, Calif.). Sub-confluent cells (60-70% confluent) were treated with 5-AZA-2′-deoxycytidine (5AZA) (Sigma Aldrich, St. Louis Mo.) dissolved in dimethyl-sulfoxide. Cells treated with vehicle served as control. Transient transfections were carried out by Lipofectamine-2000 (Invitrogen Life Technologies, Carlsbad, Calif.) following the manufacturer's protocol.
Mature miRNAs and other mRNAs were assayed using the TaqMan MicroRNA Assays and Gene Expression Assays (Applied Biosystems), respectively, as previously described in Dar et al., J Biol Chem 286:16606-14 (2011).

LOX human melanoma cells [1] = test: Cell cycle analysis, LOX; assay type: cell-based; conditions: LOX cells transfected with miR-18b
Procedure: (§1) Cell viability, colony formation and flow cytometry analysis were performed as described previously in Dar et al., J Biol Chem 286:16606-14 (2011); and Dar et al., J Invest Dermatol 130:2071-9 (2010)).

LOX human melanoma cells [2] = test: Cell proliferation, LOX; assay type: cell-based; conditions: LOX cells transfected with miR-18b
Procedure: as §1

[3] = test system: C8161.9 melanoma cell lines; test: Cell survival, MDM2 and p53 expression in mutant p53 cells; assay type: cell-based, human; conditions: C8161.9 cells harboring mutant p53
Procedure: as §1
(§2) Cell lysates were prepared in PBS containing 1×Halt protease inhibitor cocktail and 1×Halt phosphatase inhibitor cocktail (Pierce, Rockford, Ill.) centrifuged at 3500 r.p.m. for 10 min at 4° C. Proteins (10-15 ug) from each sample were subjected to SDS/polyacrylamide gel electrophoresis (PAGE) and transferred onto a nitrocellulose membrane. Target proteins were detected by using specific antibodies against MDM2, p53, p21, BCL-2 and GAPDH (Santa Cruz Biotechnology, Santa Cruz, Calif.), and PUMA, BCL-XL (Cell Signaling Technology, Danvers, Mass.).

1205-Lu cells [4] = test: Cell cycle analysis (flow cytometry), 1205-Lu; assay type: cell-based, human
Procedure: as §1

3′UTR of MDM2 = test: Luciferase reporter assay with MDM2-3′UTR; assay type: cell-based, human
Excerpt: The 3′-UTR region of MDM2 containing target site sequences complementary to the seed sequence of miR-18b were cloned downstream of the luciferase gene in the pMIR-REPORT luciferase vector (Ambion, Cambridge Mass.), and the resultant vectors were named MDM2-3′UTR. Mutated 3′UTR sequences of MDM2 complementary to miR-18b were cloned in the same vector and the resultant vectors named MDM2-Mut 3′UTR. For reporter assays, cells were transiently transfected with wild-type or mutant reporter plasmid and miR-18b. Firefly luciferase activities were measured by using the Dual Luciferase Assay (Promega, Madison, Wis.) 48 hr after transfection and the results were normalized with Renilla luciferase. Each reporter plasmid was transfected at least three times (on different days) and each sample was assayed in triplicate.

1205-Lu cells [5] = test: Colony formation assay, 1205-Lu; assay type: cell-based, human
Procedure: as §1

1205-Lu cells [6] = test: Cell proliferation / viability, 1205-Lu; assay type: cell-based, human
Procedure: as §1

[7] = test system: E-cadherin, vimentin, N-cadherin and slug; test: EMT markers by immunofluorescence and Western blot; assay type: cell-based, human; conditions: miR-18b overexpression in 1205-Lu
Procedure: as §2
1205-Lu cells were plated in 8-well plate chamber. Immunofluorescence assay was performed as previously described in Dar et al., Oncogene 28: 866-75 (2009). N-cadherin, vimentin, slug and E-cadherin antibodies (Cell signaling) were used in the assay.

LOX human melanoma cells [8] = test: Colony formation, LOX; assay type: cell-based; conditions: LOX cells transfected with miR-18b
Procedure: as §1

1205-Lu cells [9] = test: Apoptosis assay, 1205-Lu; assay type: cell-based, human
Procedure: as §1

LOX human melanoma cells [10] = test: Apoptosis assay, LOX; assay type: cell-based; conditions: LOX cells transfected with miR-18b
Procedure: as §1

chromatin modifications = test: Chromatin immunoprecipitation analysis after miR-18b overexpression; assay type: cell-based, human
Procedure: Chromatin immunoprecipitation analysis was performed using the EZ-ChIP kit (Upstate Biotechnology, Charlottesville, Va.) according to the manufacturer's directions and as described in Majid et al., Carcinogenesis 30: 662-70 (2009). Antibodies used in the immunoprecipitations were purchased from Upstate Biotechnology and Ambion (Austin, Tex.) and were specific for acetyl histone H3 (06-599), acetyl histone H4 (06-866), dimethyl-histone H3 lysine 4 (07-030), trimethyl-histone H3 lysine 4(07-473), dimethyl-histone H3 lysine 9 (07-441) and trimethyl-histone H3 lysine 9 (ab8898). The immunoprecipitated DNA was eluted in a total volume of 50 μl and 2 μl were used for PCR.

1205-Lu melanoma cells [11] = test: Invasion assay (matrigel-coated boyden chamber); assay type: cell-based, human; conditions: miR-18b over-expression; vs cont.miR
Procedure: (§3) For 1205-Lu cells boyden chamber inserts were coated with 15 μl matrigel at 6 mg/ml protein. For migration assay boyden chamber inserts were not coated and cells were directly added to them.

1205-Lu cells [12] = test: Subcutaneous tumor growth of 1205-Lu cells stably expressing miR-18b; assay type: in vivo, nude mice
Procedure: 1205-Lu cells were transfected with pEP Null or pEP miR-18b vectors (Cellbiolabs, San Diego Calif.) and selected with puromycin (1 μg/mL). For in-vivo studies as described previously in Dar et al., J Invest Dermatol 130:2071-9 (2010), 1×10^6 cells were injected into nude mice subcutaneously and tumor growth was followed for 24 days. All animal care was in accordance with the institutional guidelines.

[13] = test system: MDM2 (and the p53 pathway); test: Western blot analysis of MDM2 and p53 pathway proteins; assay type: cell-based, human
Procedure: as §2

1205-Lu melanoma cells [14] = test: Migration assay (boyden chamber); assay type: cell-based, human; conditions: miR-18b over-expression; vs cont.miR
Procedure: as §3

[15] = stable expression of miR-18b, vs control vector
[16] = transient transfection, vs cont.miR
[17] = 1205-Lu co-transfection with empty vector or MDM2-expressing vector
[18] = 1205-Lu stably overexpressing miR-18b
[19] = transient miR-18b overexpression

Nc1ncn([C@H]2C[C@H](O)[C@@H](CO)O2)c(=O)n1 [5AZA, 5-AZA-2′-deoxycytidine]
miR-18b expression (miR-18b expression; five melanoma cell lines (C8161.9, LOX, 1205-Lu, DO4, WM278), 5AZA 5 μM, vs vehicle): significant upregulation

N.N.[Cl][Pt][Cl] [cisplatin]
miR-18b expression (miR-18b expression; 1205-Lu cells, 2 nM cisplatin for 48 hr, vs vehicle-treated cells): significantly upregulated
miR-18b expression (miR-18b expression; 1205-Lu cells, 2 nM cisplatin for 48 hr, vs vehicle-treated cells, listed as Cisplatin): induced expression of miR-18b

miR-18b: microRNA, mature miR-18b-5p UAAGGUGCAUCUAGUGCAGUUAG (SEQ ID NO:1); transfected or stably expressed from pEP-hsa-mir-18b expression vector (listed as Homo sapiens)
S-phase (LOX human melanoma cells [1]): significant decrease
cell proliferation (LOX human melanoma cells [2]): significant decrease
cell survival, MDM2 and p53 expression levels [3]: no effect
cells in S-phase (1205-Lu cells [4]; [15]): significant decreases
cells in S-phase (1205-Lu cells [4]; transient overexpression, cont.miR 15.5%, p<0.02): 8.05%
reporter activity, mutant 3′UTR (3′UTR of MDM2; MDM2-Mut 3′UTR, 1205-Lu and LOX cells): no effect
reporter expression, MDM2-3′UTR construct (3′UTR of MDM2; transient co-transfection into 1205-Lu and LOX cells, 48 hr, vs control vector): significant decrease
colony formation (1205-Lu cells [5]; [15]): significant decreases
colony formation ability (1205-Lu cells [5]; [16]): low colony formation ability
melanoma cell survival (1205-Lu cells [6]; [17]): suppressed melanoma cell survival
cell proliferation with BRAF inhibitor (1205-Lu cells [6]; 1205-Lu transfected with miR-18b vs Neg-miR, treated with dabrafenib, 48 hrs): sensitized melanoma cell lines to BRAF specific inhibitor; also recorded: additive effect
sensitivity to cisplatin cytotoxicity (1205-Lu cells [6]; melanoma cells treated with miR-18b): enhanced sensitivity
cell proliferation (1205-Lu cells [6]; [15]): significantly suppressed
cell proliferation over time (1205-Lu cells [6]; [16]): significantly decreased
epithelial biomarker E-cadherin [7]: significant upregulation
mesenchymal markers vimentin, N-cadherin and slug [7]: reduced
colony formation (LOX human melanoma cells [8]): significant decrease
apoptotic index (1205-Lu cells [9]; stable expression of miR-18b): significant increase
apoptosis (1205-Lu cells [9]; transient overexpression, cont.miR 2.87%, p<0.01): 11.30%
apoptosis (LOX human melanoma cells [10]): increase
active chromatin modifications (acetylated histones H3, H4 and H3 di-methylated lysine 4) (chromatin modifications): enrichment
repressive chromatin modifications (2H3K9 and 3H3K9) (chromatin modifications): suppression
invasiveness (1205-Lu melanoma cells [11]): significantly suppressed
tumor growth in vivo (1205-Lu cells [12]; subcutaneous inoculation into nude mice, followed for 24 days, vs control vector cells): significantly suppressed
MDM2 at the protein level in tumors (1205-Lu cells [12]; subcutaneous tumors, vs control tumors): suppressed
gene expression (MDM2, p53 pathway) [13, 17]: suppression of MDM2, activation of the p53 pathway
MDM2 expression [13, 18]: significantly downregulated
expression of p53 and PUMA [13, 18]: concomitant increase
p14ARF expression ([13]; following miR-18b overexpression): unchanged
MDM2 at the protein level [13, 19]: significantly suppressed
anti-apoptotic genes BCL2 and BCL-XL [13, 19]: downregulation
pro-apoptotic genes p53 and PUMA [13, 19]: concomitant upregulation
migratory ability (1205-Lu melanoma cells [14]): significantly suppressed
